Here are results for twelve compounds from ChEMBL document CHEMBL4482312, “HTS Assay for Identifying Small Molecule Inhibitors of RAD52 and Uses of Identified Small Molecule Inhibitors for Treatment and Prevention of BRCA-Deficient Malignancies” (2018).

Active and inactive are the calls of the source. The rule behind the calls is not given here.

In data set [1] the target is T1, DNA repair protein RAD52 homolog (Homo sapiens, UniProt P43351).
T1 sequence (P43351 whole entry): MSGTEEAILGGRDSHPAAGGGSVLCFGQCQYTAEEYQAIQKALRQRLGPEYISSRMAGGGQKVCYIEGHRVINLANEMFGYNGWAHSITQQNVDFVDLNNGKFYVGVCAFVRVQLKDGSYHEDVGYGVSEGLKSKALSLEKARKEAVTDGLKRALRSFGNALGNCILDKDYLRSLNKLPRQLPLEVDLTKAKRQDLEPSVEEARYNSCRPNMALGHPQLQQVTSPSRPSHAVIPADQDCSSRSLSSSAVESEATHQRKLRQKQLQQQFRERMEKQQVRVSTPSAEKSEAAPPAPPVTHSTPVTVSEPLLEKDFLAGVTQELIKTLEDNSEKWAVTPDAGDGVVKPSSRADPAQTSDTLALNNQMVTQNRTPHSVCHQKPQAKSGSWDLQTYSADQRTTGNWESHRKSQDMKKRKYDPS
As to the kind of experiment: Inhibition of RAD52 (unknown origin) assessed as effect on RAD52-mediated annealing of complementary oligonucleotides using T-28 ssDNA substrate by FRET assay.

For data set [2], the species on record is Homo sapiens. As to the kind of experiment: Binding affinity to RPA (unknown origin) by water-logsy NMR method.
Data set [3] concerns the target T2, DNA repair protein RAD52 homolog (Homo sapiens) (UniProt P43351).
T2 sequence (whole entry): T1 sequence (P43351 whole entry)
As to the kind of experiment: Inhibition of RAD52 (unknown origin) assessed as reduction in RAD52-dsDNA interaction by FRET assay.

For data set [4], the target named is T2, DNA repair protein RAD52 homolog (Homo sapiens). As to the kind of experiment: Binding affinity to RAD52 (unknown origin) by water-logsy NMR method.
The species named for data set [5] is Homo sapiens. As to the kind of experiment: Binding affinity to RPA (unknown origin) assessed as effect on RPA-ssDNA interaction by water-logsy NMR method.
The target in data set [6] is T1, DNA repair protein RAD52 homolog. As to the kind of experiment: Inhibition of RAD52 (unknown origin) assessed as reduction in RAD52-ssDNA interaction using Cy3-dT30-Cy5 ssDNA by FRET assay.
Data set [7] can be described thus: Solubility in 30 mM Tris-acetate buffer pH 7.5 in presence of 1 mM DTT at 115 uM. It is filed as physicochemical. Conditions: pH 7.5, 115 µM.
Data set [8] is filed under the species Homo sapiens. As to the kind of experiment: Binding affinity to RPA (unknown origin) assessed as effect on RPA-ssDNA interaction at 40 uM by water-logsy NMR method.
Data set [9] concerns the target T2, DNA repair protein RAD52 homolog (Homo sapiens). As to the kind of experiment: Effect on oligomeric ring of RAD52 (unknown origin) by dynamic light scattering assay.
The species entered for data set [10] is Homo sapiens. As to the kind of experiment: Induction of anaphase bridge accumulation in checkpoint deficient HU-treated in hTERT-immortalized wild-type human GM01604 cells assessed as decrease in MUS81/EME1/RAD52-dependent DSB formation by measuring mean tail moment in presence of […] by neutral comet assay. It is filed as functional.
Data set [11] has as its target T2, DNA repair protein RAD52 homolog (Homo sapiens). As to the kind of experiment: Inhibition of RAD52 in checkpoint deficient in hTERT-immortalized wild-type human GM01604 fibroblasts assessed as decrease in MUS81/EME1/RAD52-dependent DSB formation by measuring mean tail moment in presence of […] in presence of RAD52 siRNA by neutral comet assay.
For data set [12] the target is unchanged. As to the kind of experiment: Inhibition of RAD52 (unknown origin) assessed as reduction in RAD52-ssDNA interaction using Cy3-dT30-Cy5 ssDNA in presence of 0.01% Triton-X100 by FRET assay.
Data set [13] has the same target. As to the kind of experiment: Inhibition of RAD52 in checkpoint deficient HU-treated in hTERT-immortalized wild-type human GM01604 fibroblasts assessed as decrease in MUS81/EME1/RAD52-dependent DSB formation by measuring mean tail moment in presence of […] by neutral comet assay.
Data set [14] has the same target. As to the kind of experiment: Induction of protein aggregation of RAD52 (unknown origin) by dynamic light scattering assay.
The species named for data set [15] is Homo sapiens. As to the kind of experiment: Binding affinity to RPA (unknown origin) at 40 uM by water-logsy NMR method.
The species entered for data set [16] is Homo sapiens. As to the kind of experiment: Inhibition of RAD52 (unknown origin) interaction with RPA (unknown origin).
In data set [17] the target is T2, DNA repair protein RAD52 homolog (Homo sapiens). As to the kind of experiment: Inhibition of RAD52 in checkpoint deficient HU-treated in hTERT-immortalized wild-type human GM01604 fibroblasts assessed as decrease in MUS81/EME1/RAD52-dependent DSB formation by measuring mean tail moment at 500 nM in presence of […] by neutral comet assay.
Data set [18] has the same target. As to the kind of experiment: Inhibition of RAD52 in checkpoint deficient HU-treated in hTERT-immortalized wild-type human GM01604 fibroblasts assessed as inhibiting RAD52-MUS81-dependent DSBs at stalled replication forks in presence of […] by neutral comet assay.
Data set [19] is described as follows: Solubility in DMSO at 25 mM. It is filed as physicochemical. The following applies: 25000 µM.
The nature of data set [20]: Solubility in 30 mM Tris-acetate buffer pH 7.5 in presence of 1 mM DTT at 10 uM. It is filed as physicochemical. Conditions: pH 7.5, 10 µM.
Data set [21] addresses T2, DNA repair protein RAD52 homolog (Homo sapiens). As to the kind of experiment: Inhibition of RAD52 in hTERT-immortalized wild-type human GM01604 fibroblasts with MUS81 knockdown assessed as potentiation of HU and UCN01-induced cell death by Live/Dead assay.
The species named for data set [22] is Homo sapiens. As to the kind of experiment: Binding affinity to RPA (unknown origin) at 20 uM by water-logsy NMR method.
Data set [23] has as its target T2, DNA repair protein RAD52 homolog (Homo sapiens). As to the kind of experiment: Inhibition of RAD52 in hTERT-immortalized wild-type human GM01604 fibroblasts in presence of BRCA2 siRNA NA RAD52 siRNA assessed as potentiation of HU-induced cell death by Live/Dead assay relative to control.
The target is the same in data set [24]. As to the kind of experiment: Inhibition of RAD52 in hTERT-immortalized wild-type human GM01604 fibroblasts with BRCA2 knockdown assessed as potentiation of HU and UCN01-induced cell death by Live/Dead assay.
For data set [25] the target is unchanged. As to the kind of experiment: Binding affinity to RAD52 (unknown origin) at 20 uM by water-logsy NMR method.
For data set [26], the species on record is Homo sapiens. As to the kind of experiment: Binding affinity to RPA (unknown origin) assessed as effect on RPA-ssDNA interaction at 20 uM by water-logsy NMR method.
For data set [27], the target named is T2, DNA repair protein RAD52 homolog (Homo sapiens). As to the kind of experiment: Inhibition of RAD52 in hTERT-immortalized wild-type human GM01604 fibroblasts assessed as cell death at 1 uM relative to control. Details: scale not given: the % may be the effect or the level left.

Regarding `CN(C)[C@@H]1C(O)=C(C(=O)NCN2CCCC2)C(=O)[C@@]2(O)C(O)=C3C(=O)c4c(O)cccc4[C@@](C)(O)[C@H]3C[C@@H]12` [ROLITETRACYCLINE], in data set [1], the IC50 entry is on record as “Not Active”.
With `Oc1cc(O)c2c(c1)O[C@H](c1ccc(O)c(O)c1)[C@H](O)C2` [(-)-EPICATECHIN], the IC50 entry in [1] is on record as “Not Active”.
For `NCCc1cc(O)c(O)cc1O` [OXIDOPAMINE], in data set [1], the IC50 entry is “Not Active”.
For `O=C(O[C@@H]1O[C@@H]2COC(=O)c3cc(O)c(O)c(O)c3-c3c(cc(O)c(O)c3O)C(=O)O[C@H]([C@H]1O)[C@@H]2O)c1cc(O)c(O)c(O)c1`, the result in data set [2] and in data set [4] was Active. The inhibition result in [3] is “inactive”. Besides, the outcome in data set [5] was inactive.
As to `O=c1c2ccccc2nc(CSc2[nH]cnc3ncnc2-3)n1-c1cccc(C(F)(F)F)c1`, the IC50 result in [6] is “Nd(Insoluble)”. Also, the solubility entry in [7] is recorded as “Insoluble”.
`CC1(C)C(=O)C=C[C@@]2(C)C1=C(O)C(=O)[C@]1(C)[C@@H]2CC[C@@]2(C)[C@H](c3ccoc3)C[C@H]3O[C@]321` [CEDRELONE]: the IC50 entry in data set [1] was “Not Active”.
With `O=C(O[C@@H]1Cc2c(O)cc(O)cc2O[C@@H]1c1cc(O)c(O)c(O)c1)c1cc(O)c(O)c(O)c1`, the outcome in data set [8], in [9], in [10] and in data set [14] was inactive. In addition, the inhibition entry in [11], in data set [12], in [17] and in [18] was “Active” each time. Besides, the inhibition entry in data set [13] is “Dose-dependent effect”. In [15], the result was Active. Further, in data set [16], the inhibition entry was “inactive”.
`CCOc1ccccc1NC(=O)c1c(NC(=O)Cc2ccc(OC)cc2)sc2c1CCC2`: the solubility result in data set [19] is recorded as “Insoluble”. Moreover, the IC50 entry in [6] is given as “Nd(Insoluble)”.
Take `CC(C)(O)C1Cc2cc3ccc(=O)oc3cc2O1` (stereo not drawn): the IC50 entry in [6] is listed as “Not Active”.
`COc1cc(N)c(Cl)cc1C(=O)N[C@H]1CCN(CCCOc2ccc(F)cc2)C[C@H]1OC.O`: the IC50 result in data set [1] is reported as “Not Active”.
For `CCOc1cc(C(Nc2cc(C)ccn2)c2ccc3ccc(C)nc3c2O)ccc1OC` (stereo not drawn), the solubility entry in data set [20] is on record as “Insoluble”. Also, the IC50 result in data set [6] was “Nd(Insoluble)”.
Regarding `Oc1cc(O)c2c(c1)O[C@H](c1cc(O)c(O)c(O)c1)[C@H](O)C2`, the result in data set [9], in data set [10], in [22], in [14] and in data set [26] was inactive. Besides, the inhibition entry in [11], in [21], in [12], in data set [23], in data set [24] and in data set [17] was “Active” in each case. In [18], the inhibition result is “Active”. In [13], the inhibition result was “Dose-dependent effect”. Moreover, the outcome in data set [25] was Active. Further, in data set [16], the inhibition entry is “inactive”. Also, the Activity in data set [27] stood at 40%.
